Results taken from US7825151B2, “Hexahydro-cyclooctyl pyrazole cannabinoid modulators” (priority 2005, dated 2010).

Assays:
[1] = target: T1, human CB1 receptor (Homo sapiens, UniProt P21554); assay: Functional cell-based CRE β-gal assay, CB1 (adenylate cyclase activity); details: single test concentration 1 μM (footnote 2)
T1 construct: expressed in transfected cells; host or cells: SK-N-MC cells, stably transfected with pcDNA3 CB-1 (human)
Description: The CB1 and CB2 receptors are G-protein coupled receptors (GPCR), which influence cell function via the Gi-protein. These receptors modulate the activity of intracellular adenylate cyclase, which in turn produces the intracellular signal messenger cyclic-AMP (cAMP).
At baseline, or during non-ligand bound conditions, these receptors are constitutively active and tonically suppress adenylate cyclase activity. The binding of an agonist causes further receptor activation and produces additional suppression of adenylate cyclase activity. The binding of an inverse agonist inhibits the constitutive activity of the receptors and results in an increase in adenylate cyclase activity.
By monitoring intracellular adenylate cyclase activity, the ability of compounds to act as agonists or inverse agonists can be determined.
Test compounds were evaluated in SK-N-MC cells which, using standard transfection procedures, were stably transfected with human cDNA for pcDNA3-CRE β-gal and pcDNA3 CB1 receptor (human) or pcDNA3 CB2 receptor (human). By expressing CRE β-gal, the cells produced β-galactosidase in response to CRE promoter activation by cAMP. Cells expressing CRE β-gal and either the human CB1 or CB2 receptor will produce less β-galactosidase when treated with a CB1/CB2 agonist and will produce more β-galactosidase when treated with a CB1/CB2 inverse agonist.
The cells were grown in 96-well plates under standard cell culture conditions at 37° C. in a 5% CO2 atmosphere. After 3 days, the media was removed and a test compound in media (wherein the media was supplemented with 2 mM L-glutamine, […] sodium pyruvate, 0.1% low fatty acid FBS (fetal bovine serum) and antibiotics) was added to the cell. The plates were incubated for 30 minutes at 37° C. and the plate cells were then treated with forskolin over a 4-6 hour period, then washed and lysed. The β-galactosidase activity was quantitated using commercially available kit reagents (Promega Corp. Madison, Wis.) and a Vmax Plate Reader (Molecular Devices, Inc).
The change in β-galactosidase activity was determined by setting a vehicle treated cell's activity value at 100% and expressing the β-galactosidase activity measured in a corresponding compound treated cell as a percent of the vehicle treated cell activity.
The EC50 value for functional activity for compounds tested was calculated by linear regression and was obtained from studies in which varying compound concentrations were used. Data provided for certain compounds is represented by percent change (%) in functional activity at a single test concentration: ^(1)10 μM and ^(2)1 μM.

[2] = tested on: oil of mustard induced colitis; assay: Oil of mustard induced colitis model; format: in vivo, Male CD-1 mice; details: 5 mg/kg oral; for % Inh (Macro), % inhibition of colitis: macroscopic score; for % Inh (Micro), % inhibition of colitis: microscopic score
Description: In the distal colon, the oil of mustard colitis model is characterized by a discontinuous pattern of mucosal epithelial damage, submucosal edema, infiltration of inflammatory cells (including macrophages, neutrophils and lymphocytes) into the mucosa and submucosa, increased wet weight of the colon, shrinkage of the colon length, diarrhea and apparent inflammation (see, Kimball E. S., Palmer J. M., D'Andrea M. R., Hornby P. J. and Wade P. R., Acute colitis induction by oil of mustard results in later development of an IBS-like accelerated upper GI transit in mice, Am. J. Physiol. Gastrointest. Liver Physiol., 2005, 288: G 1266-1273).
Male CD-1 mice (Charles River Laboratories, Kingston, N.C.) (9-11 weeks old) and fresh oil of mustard (OM) (allyl isothiocyanate, 98% purity, Sigma-Aldrich St. Louis, Mo.) were used.
The mice (9 per treatment group) were briefly anesthetized with ketamine/xylasine (Sigma, St. Louis, Mo.) and a solution of 0.5% OM in 30% ethanol (50 μL) was administered intracolonically (to a depth of 4 cm) via syringe (equipped with a ball-tipped 22 G needle).
A test compound was orally administered one day prior to colitis induction for assessing a prophylactic regimen or one day post-induction for assessing a therapeutic regimen. A test compound was orally administered daily thereafter. Two days after OM administration, the last test compound dose was administered.
Three days after OM administration, the animals were sacrificed. The colons were resected, examined for signs of inflammation, weighed after removing fecal contents and the length from the aboral end of the cecum to the anus was measured. The fecal contents were examined for signs of diarrhea. The distal colon between the 1st and the 4th centimeter was removed and placed in 10% neutral buffered formalin for histological analysis.
The macroscopic observations of colon inflammation (a measure of colon damage), colon weight and length and stool consistency and appearance were assigned a score and used to evaluate colitis severity.
The four observation scores for each colon were combined, whereby a combined score of 0 represents a normal colon and a combined score of 15 represents a maximally affected colon. Statistical analyses were performed in Graphpad Prism 4.0 using ANOVA.
Histological analyses of tissues consisted of staining paraffin-embedded tissue sections with hematoxylin-eosin dye. The tissues were examined using light microscopy by an investigator who was blinded to the sample groups. […]
The Macroscopic Score and Microscopic Score results for each treatment group in the prophylactic and therapeutic regimens were each combined into a mean score and expressed as % inhibition of colitis (% Inh). […]

T1 sequence (P21554 whole entry): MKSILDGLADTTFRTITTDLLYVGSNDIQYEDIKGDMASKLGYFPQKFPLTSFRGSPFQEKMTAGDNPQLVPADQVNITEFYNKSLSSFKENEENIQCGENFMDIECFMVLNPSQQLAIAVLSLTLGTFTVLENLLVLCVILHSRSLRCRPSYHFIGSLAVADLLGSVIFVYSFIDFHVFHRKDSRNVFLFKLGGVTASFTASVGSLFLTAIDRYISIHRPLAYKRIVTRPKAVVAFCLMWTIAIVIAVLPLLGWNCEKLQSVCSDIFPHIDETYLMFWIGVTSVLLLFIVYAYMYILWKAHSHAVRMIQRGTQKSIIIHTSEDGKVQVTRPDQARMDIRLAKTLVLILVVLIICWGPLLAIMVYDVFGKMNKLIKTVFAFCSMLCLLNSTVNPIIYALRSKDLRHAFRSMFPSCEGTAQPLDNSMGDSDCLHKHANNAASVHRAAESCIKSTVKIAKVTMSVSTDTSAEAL

## O=C(NCC12CC3CC(CC(C3)C1)C2)c1nn(C2CCCCC2)c2c1CCCCCC2 [Cpd 2, 1-cyclohexyl-4,5,6,7,8,9-hexahydro-1H-cyclooctapyrazole-3-carboxylic acid (adamantan-1-ylmethyl)-amide]
[1]
  CB1 receptor percent change in functional activity: ^(2)−71%
[2]; prophylactic regimen
  % Inh (Macro), % inhibition of colitis: 42.3 ± 12.6%
  % Inh (Micro), % inhibition of colitis: 74.4 ± 3.8%
[2]; therapeutic regimen
  % Inh (Macro), % inhibition of colitis: 38.7 ± 9.1%
  % Inh (Micro), % inhibition of colitis: 66.0 ± 9.8%
